This is an account of results in US20240148664A1, “LIPID AND COMPOSITION” (SOGO PHARMACEUTICAL CO., LTD., priority 2021, published 2024).

The nature of series [1]: Measurement of particle size, polydispersity index and zeta potential of lipid nanoparticle (Zetasizer). Format: physicochemical. The note with it: lipid nanoparticle containing siRNA; for Particle size (nm) / PDI: main lipid/DPPC/cholesterol=45/10/45; for Particle size (nm): Z-average in ultrapure water; for PDI: ultrapure water; for Zeta potential (mV): pH 7.4 Tris-HCl. Here is the method: 30 μL of each of the dialyzed lipid nanoparticle-containing solutions obtained by the above operation was measured out, 800 μL of ultrapure water was added to dilute the lipid nanoparticle-containing solution, and the diluted preparation solution was used to measure the particle size (nm) and the polydispersity index (PDI) by using a Zetasizer (manufactured by Malvern Panalytical, Zetasizer nano Ultra). The particle size was evaluated by Z-average in ultrapure water. The zeta potential was measured by using pH 7.4 Tris-HCl as a dilute solution.

Series [2] in a line: siRNA / mRNA encapsulation rate of lipid nanoparticle (RiboGreen). Format: physicochemical. To be noted: siRNA encapsulation rate of lipid nanoparticle. On the procedure:
The siRNA encapsulation rate and the mRNA encapsulation rate of the lipid nanoparticle were obtained as follows. First, a surfactant (Sigma-Aldrich, Triton (registered trademark), X-100 (reducing type)) was added to the lipid nanoparticle-containing solution to disrupt the lipid nanoparticle to release the encapsulated siRNA or mRNA. The amounts of the lipid nanoparticle-containing solution and the surfactant were adjusted such that the siRNA or the mRNA was 2 pmol and the surfactant was 1% in 40 μL of the solution after adding the surfactant to the lipid nanoparticle-containing solution. Next, the RiboGreen reagent (reagent that reacts with siRNA to emit fluorescence, manufactured by Thermo Fisher Scientific, Quant-iT (registered trademark) RiboGreen (registered trademark) RNA Assay Kit) was added to the solution, and the fluorescence intensity was measured under conditions of an excitation wavelength of 480 nm and a fluorescence wavelength of 520 nm with a fluorescence intensity meter (manufactured by TECAN, Infinite M200). Specifically, 75 μL of the RiboGreen reagent diluted to 1/2000 was added to a diluted solution obtained by adding 65 μL of citrate buffer to 10 μL of the solution, and the fluorescence intensity was measured. This makes it possible to relatively measure the total amount of the siRNA or the total amount of the mRNA present in the solution.
Subsequently, the RiboGreen reagent was added to the lipid nanoparticle-containing solution without adding a surfactant, and the fluorescence intensity was measured in the same manner with a fluorescence intensity meter. By not adding a surfactant, it is possible to relatively measure the amount of the siRNA or the mRNA free in the solution without being encapsulated in the lipid nanoparticle.
Then, the fluorescence intensity obtained from the solution to which the surfactant was added obtained as described above was fluorescence intensity a, and the fluorescence intensity thus obtained from the solution to which no surfactant was added obtained as described above was fluorescence intensity b, and according to the expression (a−b)/a×100, the siRNA encapsulation rate (%) or the mRNA encapsulation rate (%) of the lipid nanoparticle was obtained. Each of fluorescence intensity a and fluorescence intensity b is a value obtained by subtracting a blank from the arithmetic average value of the results of three measurements for each solution. The blank was measured by carrying out the same operation on a well containing water containing no cell or lipid nanoparticle.

Series [3] deals with HT1080-EGFP (human/fibrosarcoma) cells. The series can be described thus: Evaluation of knockdown effect (GFP assay), Cell experiment 1. The note with it: lipid nanoparticle containing siRNA against EGFP; fluorescence intensity with control cells without lipid nanoparticle set at 100. Format: cell-based. Here is the method:
A cell experiment was carried out by using HT1080-EGFP (human/fibrosarcoma) cells in order to evaluate lipid nanoparticles encapsulating an siRNA produced by using the lipids of the Examples and the Comparative Examples. These cells are cells provided with a green fluorescent protein gene (EGFP). The expression of EGFP can be easily confirmed by measuring the fluorescence intensity of a solution in which the cells are lysed, and thus by acting lipid nanoparticles encapsulating an siRNA that suppresses the expression of EGFP and observing any decrease in fluorescence intensity, the performance of the lipid nanoparticles used can be evaluated. Hereinafter, the procedure of the cell experiment will be shown.
(§1) A. Provision of Cells • (i) A liquid medium (DMEM/Ham's F12, FBS+, P/S+) (FBS: fetal bovine serum, P/S: antibiotic) was taken out from a refrigerator and temperature-controlled in an incubator set at 37° C. • (ii) A cryotube containing the cells was taken out from a −80° C. freezer and thawed at once in an incubator set at 37° C. • (iii) A stock solution of the thawed cells was collected in a capped test tube. • (iv) The tube containing the cells was washed with the liquid medium, and the wash was also collected in the test tube. • (v) The tube was subjected to a centrifuge to precipitate the cells. • (vi) The supernatant was aspirated, and the liquid medium was added and gently tapped to disperse the cells. • (vii) A small amount of the cells-dispersed liquid medium was collected, and the number of cells was observed and counted under a microscope. • (viii) The cells were seeded in a 24-well plate such that the number of cells was 2×10^4 cells per well. For the plate for an LDH assay described later, the cells were seeded in a 96-well plate such that the number of cells was 4×10^3 cells per well. • (ix) The 24-well plate or the 96-well plate was placed in an incubator, and the cells were cultured for 24 hours under conditions of 37° C. and 5% CO2.
(§2) The produced lipid nanoparticles were introduced into cells. • (i) Fetal bovine serum (FBS) was added to a liquid medium (FBS-, P/S-) temperature-controlled as in (i) of A above, in such a way as to reach 10%. • (ii) A 24-well plate was taken out from an incubator, and the liquid medium supernatant in the 24-well plate was aspirated and washed with phosphate buffered saline (PBS). • (iii) 400 μL of the liquid medium produced in (i) above was added to the washed 24-well plate. In addition, 100 μL of an LNP solution having an adjusted concentration was added. • (iv) The 24-well plate was placed in the incubator, and the cells were cultured (for 24 hours). • (v) After 24 hours, the liquid medium supernatant in the 24-well plate was aspirated, and 500 μL of a liquid medium containing 10% FBS (FBS+/P/S+) was added. • (vi) The 24-well plate was placed in the incubator, and the cells were cultured for 24 hours under conditions of 37° C. and 5% CO2.
By carrying out a GFP assay, the EGFP expression level in cells was measured to evaluate the effect of knocking down the green fluorescent protein gene (EGFP) by lipid nanoparticles. • (i) A 24-well plate was taken out from an incubator and washed with PBS. • (ii) A 1% octylglucoside solution to which a protease inhibitor was added was added in order to disrupt cells. Stirring with a pipette lysed the cells. • (iii) The cell lysate was transferred to an Eppendorf tube and subjected to a centrifuge. • (iv) 150 μL of the supernatant was collected and added to a plate for fluorescence measurement. • (v) The fluorescence intensity was measured under conditions of an excitation wavelength of 485 nm and a fluorescence wavelength of 535 nm with a plate reader (manufactured by TECAN, Infinite M200). The fluorescence intensity was calculated with the fluorescence intensity of control cells to which no lipid nanoparticle was added set at 100.

Series [4] has the same test system. The series can be described thus: Evaluation of toxicity: CCK-8 assay. Type of series: cell-based. The note with it: lipid nanoparticle containing siRNA; absorbance relative to control cells without lipid nanoparticle set at 1.00. Here is the method: as §1, §2
For Examples 1 to 9, a CCK-8 assay or an LDH assay was carried out to measure the metabolic activity of viable cells and relatively quantify the number of surviving cells to evaluate the toxicity of lipid nanoparticles.
(a) CCK-8 Assay • (i) Fetal bovine serum (FBS) and a viable cell counting kit (manufactured by DOJINDO LABORATORIES, Cell Count Kit-8) was added to a liquid medium (FBS-, P/S-) temperature-controlled as in (i) of A above, such that FBS was 10% and the kit was 10%. • (ii) A 24-well plate was taken out from an incubator. The liquid medium was removed, and 315 μL of the liquid medium containing the viable cell counting kit produced in (i) above was added. • (iii) The liquid medium was aged for 1 hour in the incubator. • (iv) The 24-well plate was taken out, and the absorbance was measured under conditions of a measurement wavelength of 450 nm and a target wavelength of 630 nm with a plate reader (manufactured by TECAN, Infinite M200). The absorbance was calculated with the absorbance of control cells to which no lipid nanoparticle was added set at 1.00. When the obtained value was 0.80 or more and 1.00 or less, a rating of double-circle (excellent) was given, when the obtained value was 0.50 or more and less than 0.80, a rating of circle (good) was given, when the obtained value was 0.20 or more and less than 0.50, a rating of triangle (fair) was given, and when the obtained value was less than 0.20, a rating of X-mark (poor) was given.
Background: Tetrazolium assays rely on reduction of a dye to a coloured formazan, in cell work by metabolically active cells.

For the molecule `CCCCCCCC/C=C\CCCCCCCCC(CCCCCCC/C=C\CCCCCCCC)OC(=O)C(CC(=O)O)NC(=O)C(N)CCCCN` (stereo not drawn) [Example 7, 3-(2,6-diaminohexanamido)-4-(((9Z,27Z)-hexatriaconta-9,27-dien-18-yl)oxy)-4-oxobutanoic acid], in series [1], the “Particle size (nm)” value was found to be 94.2 nm, the PDI came to 0.159 and the “Zeta potential (mV)” value is 8.28 mV. Also, the “Encapsulation rate (%)” value in series [2] stood at 100%. The “GFP Assay” value in series [3] is recorded as 28. Moreover, the “CCK Assay” value in series [4] is “◯ (when the obtained value was 0.50 or more and less than 0.80, a rating of circle (good) was given)”.
As for `CCCCCCCC/C=C\CCCCCCCCC(CCCCCCC/C=C\CCCCCCCC)OC(=O)C(CCC(=O)O)NC(=O)C(N)CCCCN` (stereo not drawn) [Example 8, 4-(2,6-diaminohexanamido)-5-(((9Z,27Z)-hexatriaconta-9,27-dien-18-yl)oxy)-5-oxopentanoic acid], in series [1], the “Particle size (nm)” value was found to be 162.5 nm, the PDI was determined as 0.147 and the “Zeta potential (mV)” value was found to be 19.1 mV. Moreover, the “Encapsulation rate (%)” value in series [2] is 100%. The “GFP Assay” value in series [3] is reported as 47. Further, in series [4], the “CCK Assay” value was “⊚ (When the obtained value was 0.80 or more and 1.00 or less, a rating of double-circle (excellent) was given)”.
For `CCCCCCCC/C=C\CCCCCCCCC(CCCCCCC/C=C\CCCCCCCC)OC(=O)C(CCC(=O)O)NC(=O)C(N)Cc1c[nH]cn1` (stereo not drawn) [Example 9, 4-(2-amino-3-(1H-imidazol-4-yl)propanamido)-5-(((9Z,27Z)-hexatriaconta-9,27-dien-18-yl)oxy)-5-oxopentanoic acid], in series [1], the “Particle size (nm)” value worked out at 107.6 nm, the PDI worked out at 0.093 and the “Zeta potential (mV)” value worked out at 24.6 mV. For the same molecule, the “Encapsulation rate (%)” value in series [2] is reported as 84%. For the same molecule, in series [3], the “GFP Assay” value is given as 56. In series [4], the “CCK Assay” value was “⊚ (When the obtained value was 0.80 or more and 1.00 or less, a rating of double-circle (excellent) was given)”.
